US12435059B2, “AMP-activated protein kinase inhibitors and methods of making and using the same” (The Regents of the University of Colorado, priority 2019, dated 2025)
Read-outs that look alike come from different tables or passages of the source.

Columns and labels:
Assay in all cases: biochemical
Type in all cases: binding
468 kinases [1] = target: 468 kinases (Homo sapiens, UniProt O75460); settings: ERN1; read-out: % Inhibition @ 100 nM
468 kinases [2] = target: 468 kinases (Homo sapiens, UniProt O75914); settings: PAK3; read-out: % Inhibition @ 100 nM
468 kinases [3] = target: 468 kinases (Homo sapiens, UniProt O95747); settings: OSR1; read-out: % Inhibition @ 100 nM
468 kinases [4] = target: 468 kinases (Homo sapiens, UniProt O95819); settings: MAP4K4; read-out: % Inhibition @ 100 nM
468 kinases [5] = target: 468 kinases (Homo sapiens, UniProt P00519); settings: read-out: % Inhibition @ 100 nM
468 kinases [6] = target: 468 kinases (Homo sapiens, UniProt P00533, G719C); settings: EGFR(G719C); read-out: % Inhibition @ 100 nM
468 kinases [7] = target: 468 kinases (Homo sapiens, UniProt P00533, T790M); settings: EGFR(T790M); read-out: % Inhibition @ 100 nM
468 kinases [8] = target: 468 kinases (Homo sapiens, UniProt P08581, M1250T); settings: MET(M1250T); read-out: % Inhibition @ 100 nM
468 kinases [9] = target: 468 kinases (Homo sapiens, UniProt P16591); settings: FER; read-out: % Inhibition @ 100 nM
468 kinases [10] = target: 468 kinases (Homo sapiens, UniProt P24723); settings: PRKCH; read-out: % Inhibition @ 100 nM
468 kinases [11] = target: 468 kinases (Homo sapiens, UniProt P24941); settings: CDK2; read-out: % Inhibition @ 100 nM
468 kinases [12] = target: 468 kinases (Homo sapiens, UniProt P27037); settings: ACVR2A; read-out: % Inhibition @ 100 nM
468 kinases [13] = target: 468 kinases (Homo sapiens, UniProt P28482); settings: ERK2; read-out: % Inhibition @ 100 nM
468 kinases [14] = target: 468 kinases (Homo sapiens, UniProt P29323); settings: EPHB2; read-out: % Inhibition @ 100 nM
468 kinases [15] = target: 468 kinases (Homo sapiens, UniProt P42345); settings: MTOR; read-out: % Inhibition @ 100 nM
468 kinases [16] = target: 468 kinases (Homo sapiens, UniProt P46734); settings: MEK3; read-out: % Inhibition @ 100 nM
468 kinases [17] = target: 468 kinases (Homo sapiens, UniProt P50750); settings: CDK9; read-out: % Inhibition @ 100 nM
468 kinases [18] = target: 468 kinases (Homo sapiens, UniProt P52333); settings: JAK3 (JH1domain-catalytic); read-out: % Inhibition @ 100 nM
468 kinases [19] = target: 468 kinases (Homo sapiens, UniProt Q00526); settings: CDK3; read-out: % Inhibition @ 100 nM
468 kinases [20] = target: 468 kinases (Homo sapiens, UniProt Q00535); settings: CDK5; read-out: % Inhibition @ 100 nM
468 kinases [21] = target: 468 kinases (Homo sapiens, UniProt Q13043); settings: MST1; read-out: % Inhibition @ 100 nM
468 kinases [22] = target: 468 kinases (Homo sapiens, UniProt Q14164); settings: IKK-epsilon; read-out: % Inhibition @ 100 nM
468 kinases [23] = target: 468 kinases (Homo sapiens, UniProt Q15375); settings: EPHA7; read-out: % Inhibition @ 100 nM
468 kinases [24] = target: 468 kinases (Homo sapiens, UniProt Q16539); settings: p38-alpha; read-out: % Inhibition @ 100 nM
468 kinases [25] = target: 468 kinases (Homo sapiens, UniProt Q16816); settings: PHKG1; read-out: % Inhibition @ 100 nM
468 kinases [26] = target: 468 kinases (Homo sapiens, UniProt Q86UE8); settings: TLK2; read-out: % Inhibition @ 100 nM
468 kinases [27] = target: 468 kinases (Homo sapiens, UniProt Q86Z02); settings: HIPK1; read-out: % Inhibition @ 100 nM
468 kinases [28] = target: 468 kinases (Homo sapiens, UniProt Q8IWQ3); settings: BRSK2; read-out: % Inhibition @ 100 nM
468 kinases [29] = target: 468 kinases (Homo sapiens, UniProt Q8NEV4); settings: MYO3A; read-out: % Inhibition @ 100 nM
468 kinases [30] = target: 468 kinases (Homo sapiens, UniProt Q96PN8); settings: TSSK3; read-out: % Inhibition @ 100 nM
468 kinases [31] = target: 468 kinases (Homo sapiens, UniProt Q9BUB5); settings: MKNK1; read-out: % Inhibition @ 100 nM
468 kinases [32] = target: 468 kinases (Homo sapiens, UniProt Q9P1W9); settings: PIM2; read-out: % Inhibition @ 100 nM
468 kinases [33] = target: 468 kinases (Homo sapiens, UniProt Q9Y2U5); settings: MAP3K2; read-out: % Inhibition @ 100 nM

468 kinases (Homo sapiens, UniProt P29323), sequence (P29323 19-1055 limits assumed): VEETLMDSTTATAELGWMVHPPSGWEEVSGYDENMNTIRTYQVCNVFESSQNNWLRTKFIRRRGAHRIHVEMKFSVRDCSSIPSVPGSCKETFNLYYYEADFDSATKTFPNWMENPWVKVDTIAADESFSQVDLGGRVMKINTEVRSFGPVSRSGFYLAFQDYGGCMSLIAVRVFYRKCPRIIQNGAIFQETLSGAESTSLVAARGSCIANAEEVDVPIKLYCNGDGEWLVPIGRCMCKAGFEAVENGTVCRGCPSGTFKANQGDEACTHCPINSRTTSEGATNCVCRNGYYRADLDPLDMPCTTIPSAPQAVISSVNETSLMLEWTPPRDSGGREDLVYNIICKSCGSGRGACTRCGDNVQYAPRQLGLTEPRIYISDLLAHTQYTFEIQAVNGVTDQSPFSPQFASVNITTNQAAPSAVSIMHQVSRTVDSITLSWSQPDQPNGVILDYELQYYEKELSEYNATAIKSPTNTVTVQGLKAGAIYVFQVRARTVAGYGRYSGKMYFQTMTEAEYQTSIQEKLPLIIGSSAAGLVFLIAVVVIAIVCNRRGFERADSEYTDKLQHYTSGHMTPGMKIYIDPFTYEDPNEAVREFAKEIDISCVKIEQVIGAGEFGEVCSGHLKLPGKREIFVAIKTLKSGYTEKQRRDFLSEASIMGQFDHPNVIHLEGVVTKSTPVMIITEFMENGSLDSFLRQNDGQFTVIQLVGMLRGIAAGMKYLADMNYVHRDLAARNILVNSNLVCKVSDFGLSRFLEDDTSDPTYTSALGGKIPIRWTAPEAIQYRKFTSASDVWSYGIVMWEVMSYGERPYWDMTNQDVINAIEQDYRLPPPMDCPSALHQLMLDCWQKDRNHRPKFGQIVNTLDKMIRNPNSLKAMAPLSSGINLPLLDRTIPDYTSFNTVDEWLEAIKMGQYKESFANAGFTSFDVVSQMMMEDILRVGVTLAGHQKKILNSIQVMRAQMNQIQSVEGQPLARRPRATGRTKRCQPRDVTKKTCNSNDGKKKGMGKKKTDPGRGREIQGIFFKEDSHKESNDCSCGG
468 kinases (Homo sapiens, UniProt O95819), sequence (O95819 2-1239 limits assumed): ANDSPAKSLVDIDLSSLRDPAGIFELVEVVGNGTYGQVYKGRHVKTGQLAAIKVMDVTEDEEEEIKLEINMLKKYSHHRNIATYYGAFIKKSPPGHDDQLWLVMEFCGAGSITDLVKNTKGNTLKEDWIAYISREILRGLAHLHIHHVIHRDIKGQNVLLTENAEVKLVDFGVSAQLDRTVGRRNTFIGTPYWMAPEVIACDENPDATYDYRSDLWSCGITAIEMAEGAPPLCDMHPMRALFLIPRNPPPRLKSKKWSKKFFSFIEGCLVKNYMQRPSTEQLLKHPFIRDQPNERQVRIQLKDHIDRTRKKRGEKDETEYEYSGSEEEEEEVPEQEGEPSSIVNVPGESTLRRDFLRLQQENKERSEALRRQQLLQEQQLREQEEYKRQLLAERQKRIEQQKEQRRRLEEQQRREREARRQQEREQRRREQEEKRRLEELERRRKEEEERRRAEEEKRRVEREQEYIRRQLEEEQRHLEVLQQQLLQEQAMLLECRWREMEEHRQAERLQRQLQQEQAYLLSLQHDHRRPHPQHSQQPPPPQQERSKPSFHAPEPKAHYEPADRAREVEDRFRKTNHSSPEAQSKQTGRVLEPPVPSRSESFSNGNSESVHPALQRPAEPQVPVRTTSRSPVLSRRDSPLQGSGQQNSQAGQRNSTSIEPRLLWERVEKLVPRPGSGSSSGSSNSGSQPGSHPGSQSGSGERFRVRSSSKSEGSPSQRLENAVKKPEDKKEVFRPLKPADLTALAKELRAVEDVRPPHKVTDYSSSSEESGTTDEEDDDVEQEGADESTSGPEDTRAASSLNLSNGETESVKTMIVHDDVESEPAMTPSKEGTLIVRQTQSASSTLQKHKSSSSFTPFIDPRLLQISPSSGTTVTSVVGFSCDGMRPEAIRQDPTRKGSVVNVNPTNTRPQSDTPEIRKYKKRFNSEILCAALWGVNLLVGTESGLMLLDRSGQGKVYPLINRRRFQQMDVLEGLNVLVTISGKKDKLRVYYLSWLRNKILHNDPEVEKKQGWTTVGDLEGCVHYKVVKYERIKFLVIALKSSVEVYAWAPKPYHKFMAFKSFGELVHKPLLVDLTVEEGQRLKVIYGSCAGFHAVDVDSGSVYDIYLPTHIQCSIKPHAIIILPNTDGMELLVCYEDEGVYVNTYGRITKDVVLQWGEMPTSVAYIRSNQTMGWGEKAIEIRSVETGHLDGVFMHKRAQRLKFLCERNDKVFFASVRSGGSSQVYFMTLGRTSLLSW
468 kinases (Homo sapiens, UniProt O75460), sequence (O75460 19-977 limits assumed): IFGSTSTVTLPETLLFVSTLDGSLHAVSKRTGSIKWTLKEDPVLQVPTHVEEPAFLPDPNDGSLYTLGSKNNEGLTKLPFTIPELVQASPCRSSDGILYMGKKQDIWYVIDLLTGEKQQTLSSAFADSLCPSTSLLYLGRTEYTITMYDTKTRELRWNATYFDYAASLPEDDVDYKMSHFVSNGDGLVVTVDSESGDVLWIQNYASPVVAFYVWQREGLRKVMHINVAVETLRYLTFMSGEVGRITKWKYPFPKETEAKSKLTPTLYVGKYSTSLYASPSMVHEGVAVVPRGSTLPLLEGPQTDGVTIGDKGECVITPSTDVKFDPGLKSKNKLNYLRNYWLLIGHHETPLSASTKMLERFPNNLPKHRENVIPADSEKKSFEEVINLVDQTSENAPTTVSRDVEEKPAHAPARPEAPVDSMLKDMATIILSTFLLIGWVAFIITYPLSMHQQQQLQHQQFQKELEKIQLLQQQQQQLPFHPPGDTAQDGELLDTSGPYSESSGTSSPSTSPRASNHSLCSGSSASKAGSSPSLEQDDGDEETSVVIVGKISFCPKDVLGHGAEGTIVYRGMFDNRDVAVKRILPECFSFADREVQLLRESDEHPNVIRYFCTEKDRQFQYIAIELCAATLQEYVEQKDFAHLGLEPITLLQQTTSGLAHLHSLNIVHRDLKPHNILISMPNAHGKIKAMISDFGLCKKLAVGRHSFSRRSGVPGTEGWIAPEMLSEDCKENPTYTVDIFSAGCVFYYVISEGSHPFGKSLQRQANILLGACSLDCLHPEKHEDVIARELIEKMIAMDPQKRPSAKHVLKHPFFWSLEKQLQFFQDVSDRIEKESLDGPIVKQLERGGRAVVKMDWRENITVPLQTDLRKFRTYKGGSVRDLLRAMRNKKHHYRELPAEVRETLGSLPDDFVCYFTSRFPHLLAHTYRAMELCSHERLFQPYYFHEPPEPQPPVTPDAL
468 kinases (Homo sapiens, UniProt O95747), sequence (O95747 2-527 limits assumed): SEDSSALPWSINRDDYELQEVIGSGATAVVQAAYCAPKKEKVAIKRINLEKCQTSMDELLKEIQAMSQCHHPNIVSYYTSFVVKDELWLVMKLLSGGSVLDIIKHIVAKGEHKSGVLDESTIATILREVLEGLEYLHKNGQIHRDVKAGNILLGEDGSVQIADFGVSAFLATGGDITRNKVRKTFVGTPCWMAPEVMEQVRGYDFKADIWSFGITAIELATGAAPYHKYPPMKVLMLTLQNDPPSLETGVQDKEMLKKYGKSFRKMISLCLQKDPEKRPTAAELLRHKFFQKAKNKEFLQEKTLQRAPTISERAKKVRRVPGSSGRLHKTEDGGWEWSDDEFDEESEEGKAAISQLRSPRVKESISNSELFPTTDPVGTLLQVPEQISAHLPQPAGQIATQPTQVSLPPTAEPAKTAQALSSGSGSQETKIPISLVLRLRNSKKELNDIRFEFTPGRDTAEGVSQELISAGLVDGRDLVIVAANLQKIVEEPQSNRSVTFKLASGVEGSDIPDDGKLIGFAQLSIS
468 kinases (Homo sapiens, UniProt P08581, M1250T), sequence (P08581 25-1390 M1250T limits assumed): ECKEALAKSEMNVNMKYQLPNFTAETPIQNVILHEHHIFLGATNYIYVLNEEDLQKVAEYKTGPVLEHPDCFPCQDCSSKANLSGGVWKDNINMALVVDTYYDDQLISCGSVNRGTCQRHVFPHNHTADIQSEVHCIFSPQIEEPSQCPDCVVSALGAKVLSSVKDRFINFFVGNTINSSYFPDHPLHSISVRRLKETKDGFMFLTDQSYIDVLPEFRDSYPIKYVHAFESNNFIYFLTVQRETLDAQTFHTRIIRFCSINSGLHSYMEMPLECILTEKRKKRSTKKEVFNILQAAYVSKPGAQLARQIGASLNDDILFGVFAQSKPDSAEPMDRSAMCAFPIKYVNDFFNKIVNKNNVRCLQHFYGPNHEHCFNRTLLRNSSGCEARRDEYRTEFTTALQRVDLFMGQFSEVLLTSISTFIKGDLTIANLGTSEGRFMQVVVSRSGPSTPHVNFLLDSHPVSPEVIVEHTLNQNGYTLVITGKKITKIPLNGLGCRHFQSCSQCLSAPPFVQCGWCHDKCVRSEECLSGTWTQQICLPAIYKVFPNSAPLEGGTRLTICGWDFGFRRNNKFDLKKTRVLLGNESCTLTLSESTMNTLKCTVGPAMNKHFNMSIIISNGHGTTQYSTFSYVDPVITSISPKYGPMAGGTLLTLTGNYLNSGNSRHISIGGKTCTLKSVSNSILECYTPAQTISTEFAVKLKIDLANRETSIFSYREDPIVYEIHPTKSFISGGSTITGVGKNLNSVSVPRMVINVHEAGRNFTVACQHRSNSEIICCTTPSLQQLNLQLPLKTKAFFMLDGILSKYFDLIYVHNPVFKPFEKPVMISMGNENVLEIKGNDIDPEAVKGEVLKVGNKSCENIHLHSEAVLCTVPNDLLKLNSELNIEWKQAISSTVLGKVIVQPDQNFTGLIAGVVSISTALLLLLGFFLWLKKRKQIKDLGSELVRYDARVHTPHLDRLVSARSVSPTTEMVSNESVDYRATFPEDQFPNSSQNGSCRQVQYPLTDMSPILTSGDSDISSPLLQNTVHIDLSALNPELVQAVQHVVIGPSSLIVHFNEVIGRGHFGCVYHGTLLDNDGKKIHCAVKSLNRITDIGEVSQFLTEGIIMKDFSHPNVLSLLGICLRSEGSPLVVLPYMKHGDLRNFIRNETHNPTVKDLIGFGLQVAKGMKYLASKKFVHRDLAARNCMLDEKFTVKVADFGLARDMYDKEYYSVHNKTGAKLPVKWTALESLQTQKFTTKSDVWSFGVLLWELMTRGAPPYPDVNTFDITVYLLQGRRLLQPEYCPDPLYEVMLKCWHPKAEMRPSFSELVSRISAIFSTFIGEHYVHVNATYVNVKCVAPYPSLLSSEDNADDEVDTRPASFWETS

SMILES | inhibition at 0.1 µM (468 kinases [1]) [%] | inhibition at 0.1 µM (468 kinases [2]) [%] | inhibition at 0.1 µM (468 kinases [3]) [%] | inhibition at 0.1 µM (468 kinases [4]) [%] | inhibition at 0.1 µM (468 kinases [5]; ABL1 -nonphosphorylated) [%] | inhibition at 0.1 µM (468 kinases [6]) [%] | inhibition at 0.1 µM (468 kinases [7]) [%] | inhibition at 0.1 µM (468 kinases [8]) [%] | inhibition at 0.1 µM (468 kinases [9]) [%] | inhibition at 0.1 µM (468 kinases [10]) [%] | inhibition at 0.1 µM (468 kinases [11]) [%] | inhibition at 0.1 µM (468 kinases [12]) [%] | inhibition at 0.1 µM (468 kinases [13]) [%] | inhibition at 0.1 µM (468 kinases [14]) [%] | inhibition at 0.1 µM (468 kinases [15]) [%] | inhibition at 0.1 µM (468 kinases [16]) [%] | inhibition at 0.1 µM (468 kinases [17]) [%] | inhibition at 0.1 µM (468 kinases [18]) [%] | inhibition at 0.1 µM (468 kinases [19]) [%] | inhibition at 0.1 µM (468 kinases [20]) [%] | other results
CCN(CC)CCNC(=O)c1c(C)[nH]c(/C=C2\C(=O)Nc3ccc(CCO)cc32)c1C [Compound No. 10, (Z)—N-(2-(Diethylamino)ethyl)-5-((5-(2-hydroxyethyl)-2-oxoindolin-3-ylidene)methyl)-2,4-dimethyl-1H-pyrrole-3-carboxamide] | 0 | 36 | 0 | 47 | 54 | 32 | 0 | 0 | 12 | 1 | 0 | 10 | 8 | 3 | 0 | 9 | 0 | 17 | 0 | 0 | inhibition at 0.1 µM (468 kinases [5]; ABL1 -phosphorylated): 44%; inhibition at 0.1 µM (468 kinases [21]): 28%; inhibition at 0.1 µM (468 kinases [22]): 68%; inhibition at 0.1 µM (468 kinases [23]): 0%; inhibition at 0.1 µM (468 kinases [24]): 0%; inhibition at 0.1 µM (468 kinases [25]): 86%; inhibition at 0.1 µM (468 kinases [26]): 0%; inhibition at 0.1 µM (468 kinases [27]): 56%; inhibition at 0.1 µM (468 kinases [28]): 32%; inhibition at 0.1 µM (468 kinases [29]): 0%; inhibition at 0.1 µM (468 kinases [30]): 4%; inhibition at 0.1 µM (468 kinases [31]): 3%; inhibition at 0.1 µM (468 kinases [32]): 8%; inhibition at 0.1 µM (468 kinases [33]): 77%
CCN(CC)CCNC(=O)c1c(C)[nH]c(/C=C2\C(=O)Nc3ccc(CCC(N)=O)cc32)c1C [Compound No. 16, (Z)-5-((5-(3-Amino-3-oxopropyl)-2-oxoindolin-3-ylidene)methyl)-N-(2-(diethylamino)ethyl)-2,4-dimethyl-1H-pyrrole-3-carboxamide] | 10 | 13 | 47 | 46 | 36 | 9 | 30 | 6 | 0 | 0 | 7 | 18 | 6 | 10 | 6 | 35 | 6 | 48 | 19 | 0 | inhibition at 0.1 µM (468 kinases [21]): 0%; inhibition at 0.1 µM (468 kinases [22]): 44%; inhibition at 0.1 µM (468 kinases [23]): 1%; inhibition at 0.1 µM (468 kinases [24]): 0%; inhibition at 0.1 µM (468 kinases [25]): 88%; inhibition at 0.1 µM (468 kinases [26]): 23%; inhibition at 0.1 µM (468 kinases [27]): 92.6%; inhibition at 0.1 µM (468 kinases [28]): 25%; inhibition at 0.1 µM (468 kinases [29]): 1%; inhibition at 0.1 µM (468 kinases [30]): 5%; inhibition at 0.1 µM (468 kinases [31]): 31%; inhibition at 0.1 µM (468 kinases [32]): 0%; inhibition at 0.1 µM (468 kinases [33]): 29%
